According to ChEMBL document CHEMBL1158183, “Use of self-organizing maps and molecular descriptors to predict the cytotoxic activity of sesquiterpene lactones” (2008):

tested on: KB; test: Cytotoxicity against human KB cells; format: functional; details: read-out: ED50 (the source's name)

Compound | EC50
C=C1C(=O)O[C@@H]2/C=C(\C)CC/C=C(\C)CC[C@@H]12 [COSTUNOLIDE] | 2.46 µM
C=C1C(=O)O[C@@H]2/C=C(\C)[C@@H](OC(C)=O)C/C=C(\C)C(OC(=O)[C@]3(C)O[C@@H]3C)C(O)[C@@H]12 (some centres undefined) [EUPATOCUNOXIN] | 4.04 µM
C=C[C@@]12COC(=O)C(=C)[C@@H]1[C@H]1OC(=O)C(=C)[C@@H]1[C@@H](OC(C)=O)C2 [VERNOLEPIN ACETATE] | 8.49 µM
C=C1C(=O)O[C@@H]2[C@H]3C(CO)=CC(=O)C3=C(C)CC[C@@H]12 [DEOXYLACTUCIN] | 3.1 µM
C=C1C(=O)O[C@@H]2/C=C(\C)CC/C=C(\C)C[C@@H](O)[C@@H]12 [EUPATOLIDE] | 5 µM
C=C[C@@]12COC(=O)C(=C)[C@@H]1[C@H]1OC(=O)C(=C)[C@@H]1[C@@H](O)C2 [VERNOLEPIN] | 6.52 µM
C=C(C)C(=O)O[C@H]1CC2=C[C@@H](C[C@@]3(C)O[C@@H]3[C@H]3OC(=O)C(=C)[C@@H]31)OC2=O [ELEPHANTOPIN] | 2.51 µM
C=C[C@@]12COC(=O)C(=C)[C@@H]1[C@H]1OC(=O)C(=C)[C@@H]1[C@@H](OC(=O)C(=C)CO)C2 [VERNODALIN] | 5 µM
C=C1C(=O)O[C@@H]2C[C@@H](C)[C@@H]3C=CC(=O)[C@@]3(C)[C@@H](O)[C@H]12 [HELENALIN] | 0.76 µM
C=C1C(=O)O[C@@H]2C3O[C@]3(C)CC/C=C(\C)CC[C@@H]12 (some centres undefined) | 5.3 µM
C=C1C(=O)O[C@@H]2/C=C(/C)[C@@H](O)C[C@H]3O[C@]3(C)C[C@@H](OC(=O)/C(C)=C\C)[C@@H]12 [EPOXYNOBILIN] | 0.99 µM
C=C1C(=O)O[C@H]2[C@H]1[C@H](OC(=O)/C(C)=C\C)C[C@]1(CO1)[C@@H]1[C@H](O)[C@H]3O[C@@]3(C)[C@]21O [EUPATOROXIN] | 7.14 µM
C=C1C(=O)O[C@H]2[C@H]1[C@H](OC(=O)/C(C)=C\C)C[C@](O)(CCl)[C@@H]1[C@H](O)[C@H]3O[C@@]3(C)[C@]21O [EUPACHLOROXIN] | 8.39 µM
C=C1C(=O)O[C@H]2[C@H]1[C@H](OC(=O)/C(C)=C\C)C[C@]1(CO1)[C@@H]1[C@H](OC(C)=O)C=C(C)[C@]21O [EUPAROTIN ACETATE] | 0.53 µM
C=C1C(=O)O[C@@H]2/C=C3\CCC4OC4(C[C@H](OC(=O)C(C)C)[C@@H]12)C(O)OC3 (some centres undefined) [VERNOMYGDIN] | 4.12 µM
C=C1C(=O)O[C@@H]2/C=C(/CO)[C@@H](OC(C)=O)C[C@H](O)/C(C)=C\[C@@H](OC(=O)/C(C)=C/C)[C@@H]12 [EUPACUNOLIN] | 8.8 µM
C=C1C(=O)O[C@H]2CC3=C[C@@H](C[C@]4(C)O[C@@H]4[C@@H](O)[C@H]12)OC3=O [ELEPHANTOL] | 123 µM
C=C1C(=O)O[C@H]2/C=C(\C)C(=O)C/C=C(/C)C[C@H](OC(=O)/C(C)=C\C)[C@@H]12 [DEHYDRONOBILIN] | 2.7 µM
C=C1C(=O)O[C@H]2C[C@@]3(C)O[C@@H]3CC/C(C(=O)OC)=C\C[C@H]12 [HIRUSUTOLIDE] | 7 µM
C=C1C(=O)O[C@H]2C[C@@H](C)[C@@H]3C=CC(=O)[C@@]3(C)C[C@H]12 [AROMATICIN] | 1.38 µM
C=C1C(=O)O[C@@H]2[C@H]1CC[C@H](C)[C@]1(O)C=CC(=O)[C@@]21C [PARTHENIN] | 1.3 µM
C=C1C(=O)O[C@H]2[C@H]1[C@H](OC(=O)/C(C)=C/C)C[C@]1(CO1)[C@@H]1[C@H](O)C=C(C)[C@]21O [EUPAROTIN] | 0.56 µM
C=C[C@@]12COC(=O)C(=C)[C@@H]1[C@H]1OC(=O)C(=C)[C@@H]1[C@@H](OC(=O)C(=C)C)C2 [VERNOLEPIN METHACRYLATE] | 1.22 µM
C=C1C(=O)O[C@H]2C[C@@H](C)[C@@H]3C=CC(=O)[C@@]3(C)[C@H](OC(C)=O)[C@H]12 [LINIFOLIN A] | 2 µM
C=C1C(=O)O[C@@H]2[C@H]3C(CO)=CC(=O)C3=C(C)C[C@@H](O)[C@@H]12 [LACTUCIN] | 260 µM
C=C1C(=O)O[C@@H]2/C=C(/C)[C@@]3(O)C=C[C@@](C)(C[C@@H](OC(=O)/C(=C\C)COC(C)=O)[C@@H]12)O3 [LIATRIN] | 3.93 µM
C=C1C(=O)O[C@H]2[C@H]1[C@H](OC(=O)/C(C)=C\C)C[C@](O)(CCl)[C@@H]1[C@H](OC(C)=O)C=C(C)[C@]21O [EUPACHLORIN ACETATE] | 0.35 µM

Compound | EC50
C=C1[C@@H]2[C@H]3OC(=O)C(=C)[C@@H]3CCC(=C)[C@H]2C[C@@H]1OC(=O)C=C(C)C [VERNOFLEXIN] | 4.3 µM
C=C1C(=O)O[C@H]2C[C@H](C)[C@@H]3CC(=O)C(C)=C3C[C@H]12 [XERANTOLIDE] | 6.1 µM
C=C1C(=O)O[C@H]2[C@H]1[C@H](OC(=O)/C(C)=C\C)CC(=C)[C@@H]1[C@H](O)[C@H]3O[C@@]3(C)[C@@]12O [EUPATUNDIN] | 1.04 µM
C=C1CC(OC(=O)/C(C)=C/C)C2C(=C)C(=O)OC2/C=C(\C)C(O)CC1O (centres undefined) [HYDROXYISONOBILIN] | 3.7 µM
C=C1[C@@H]2[C@H]3OC(=O)C(=C)[C@@H]3CCC(=C)[C@@H]2C[C@@H]1O[C@@H]1O[C@H](CO)[C@@H](O)[C@H](O)[C@H]1O [VERNOFLEXUOSIDE] | 19 µM
C=C1C(=O)O[C@@H]2/C=C(\CO)CC/C=C(\CO)C[C@H](OC(=O)C(C)C)[C@@H]12 [ALATOLIDE] | 4 µM
C=C1C(=O)O[C@@H]2[C@H]1CC[C@H](C)[C@@H]1C[C@@H](O)C(=O)[C@@]21C | 10 µM
C=C1[C@H](O)C[C@H](O)[C@]2(C)CC[C@@H]3[C@H](OC(=O)[C@H]3C)[C@@H]12 [ERIVANIN] | 1.1 µM
C=C1C(=O)O[C@@H]2/C=C(\C)[C@H](O)C/C=C(\C)CC[C@@H]12 [TAMAULIPIN B] | 10.5 µM
C=C1C(=O)O[C@@H]2/C=C(\CO)CC/C=C(\C)C[C@H](O)[C@@H]12 [SALONITENOLIDE] | 9.1 µM
C=C1C(=O)O[C@@H]2[C@H]1CC[C@H](C)[C@]1(O)CCC(=O)[C@@]21C [CORONOPILIN] | 5.49 µM
C=C1[C@@H]2[C@H]3OC(=O)C(=C)[C@@H]3CCC(=C)[C@@H]2C[C@@H]1O[C@@H]1O[C@H](COC(C)=O)[C@@H](OC(C)=O)[C@H](OC(C)=O)[C@H]1OC(C)=O [VERNOFLEXUOSIDE TETRA ACETYL] | 8.75 µM
C=C1C(=O)O[C@H]2C/C(C)=C/C[C@@H](OC(C)=O)/C(C)=C/[C@@H](OC(C)=O)[C@@H]12 [CHAMMISSONIN DIACETATE] | 6.12 µM
C=C1C(=O)O[C@@H]2[C@H]1[C@@H](O)C[C@H](C)[C@@H]1CCC(=O)[C@@]21C [DESACETYLCONFERTIFLORIN] | 8.71 µM
C=C1C(=O)O[C@H]2[C@H]1[C@H](OC(=O)/C(C)=C\C)C[C@@]1(CO1)[C@@H]1[C@H](O)[C@H]3O[C@@]3(C)[C@]21O | 0.63 µM
C=C1C(=O)O[C@H]2[C@H]1[C@@H](OC(=O)C=C(C)C)CC1=C[C@@H](C[C@@]3(C)O[C@H]23)OC1=O [ELEPHANTIN] | 3.22 µM
C=C1C(=O)O[C@@H]2/C=C(\C)[C@@H](OC(C)=O)C/C=C(/C)C(O)[C@@H](OC(=O)/C(C)=C\C)[C@@H]12 (some centres undefined) [EUPATOCUNIN] | 0.27 µM
C=C[C@@]12COC(=O)C(=C)[C@@H]1[C@@H](O)[C@@H]1C(=C)C(=O)O[C@H]1C2 [VERNOMENIN] | 127 µM
C=C[C@]12COC(=O)C(=C)[C@H]1[C@H](OC(C)=O)[C@H]1C(=C)C(=O)O[C@@H]1C2 [VERNOMENIN ACETATE] | 26.2 µM
C=C1C(=O)O[C@@H]2/C=C(/C)[C@@H](OC(C)=O)C[C@H](O)/C(C)=C\[C@@H](OC(=O)[C@]3(C)O[C@@H]3C)[C@@H]12 [EUPACUNOXIN] | 5 µM
C=C1C(=O)O[C@H]2C=C(C)[C@H]3[C@@H](OC(C)=O)C[C@@](C)(O)[C@@H]3C[C@H]12 [GAILLARDIN] | 7.52 µM
C=C1C(=O)O[C@@H]2/C=C(\C)C[C@H](O)/C=C(\C)CC[C@@H]12 [TAMAULIPIN A] | 5.08 µM
C=C1C(=O)O[C@H]2C[C@@]3(CO3)[C@@H]3C[C@H](OC(C)=O)C(=C)[C@]3(O)C[C@H]12 [ARCTOLIDE] | 29 µM
C=C1C(=O)O[C@@H]2/C=C(\C)CC/C=C(/C)C[C@@H](OC(=O)/C(=C/CO)CO)[C@@H]12 [EUPATORIOPICRIN] | 3.3 µM
C=C1C(=O)O[C@@H]2[C@H]1CC[C@H](C)[C@@H]1C=CC(=O)[C@@]21C [AMBROSIN] | 1.83 µM
C=C1C(=O)O[C@H]2C[C@@H](C)[C@@H]3C=CC(=O)[C@@]3(C)[C@H](O)[C@H]12 [MEXICANIN I] | 1.26 µM
C=C1C(=O)O[C@H]2[C@H]1[C@H](OC(=O)/C(C)=C\C)C[C@](O)(CCl)[C@@H]1[C@H](O)C=C(C)[C@]21O [EUPACHLORIN] | 0.51 µM
